Values quoted from earlier work as cited in article PMC3462432 (FEBS letters, 2012).

Substance: cypemycin
- in vitro activity against mouse leukemia cells (mouse leukemia cells): potent in vitro activity

Substance: plantazolicin A
- activity against B. anthracis (B. anthracis): potent activity

Substance: plantazolicin B
- activity against B. anthracis (B. anthracis): devoid of activity
